Patent publication US5030760A, “Tetrahydrophthalimides, and their production and use” (Sumitomo Chemical Company, Ltd., priority 1981, dated 1991)

Assays:
[1] = system: velvetleaf; assay: Test Example 4, pre-emergence treatment, herbicidal activity; type: in vivo, Abutilon theophrasti; conditions: 20 days; note: ranges in brackets are in %
Method in brief: (§1)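 After sowing in upland field soil, the test compound was sprayed over the soil as a water-dispersed emulsifiable concentrate with spreading agent. Plants grew 20 days in the greenhouse before aerial parts were cut and weighed, and ratings were assigned from fresh weight as percent of untreated.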

[2] = system: hardstem bulrush; assay: Test Example 6, paddy pot perfusion, herbicidal activity; type: in vivo, Scirpus juncoides; conditions: 3 weeks, dry weight; note: ranges in brackets are in %
Experimental: (§2) The application of the tetrahydrophthalimides (I) as herbicides will be illustratively shown in the following Examples wherein the phytotoxicity to cultivated plants and the herbicidal activity on weeds were evaluated as follows: the aerial parts of the test plants were cut off and weighed (fresh weight); the percentage of the fresh weight of the treated plant to that of the untreated plant was calculated with the latter fresh weight taken as 100; and the crop damage and the herbicidal activity were evaluated by the standard given in the table below. The rating values of phytotoxicity, 0 and 1, and those of herbicidal effect, 5 and 4, are generally regarded as satisfactory to protect cultivated plants and control weeds, respectively. The rating values in the paddy field test alone were calculated from the dry weight of the test plants.
(§3) Wagner's pots (1/5000 are) were filled with paddy field soil containing the seeds of broad-leaved weeds (e.g. monochoria, false pimpernel, toothcup) and the seeds of barnyardgrass and hardstem bulrush, and water was poured therein until the depth of water became 4 cm. Rice seedlings of the 3.5-leaf stage and the tubers of arrowhead were transplanted therein and grown for 2 days in a greenhouse. A designed amount of the test compound formulated in an emulsifiable concentrate according to Preparation Example 2 was applied to the pots by perfusion. Thereafter, the test plants were grown for an additional 3 weeks in the greenhouse, and herbicidal activity and phytotoxicity were examined. In this treatment, the emulsifiable concentrate was dispersed in water for application at a perfusion volume of 10 liters per are.

[3] = system: tall morningglory; assay: Test Example 5, spraying over the top, herbicidal activity; type: in vivo, Ipomoea purpurea; conditions: sprayed over the top, 20 days; note: ranges in brackets are in %
Experimental: as §2
(§4) Plastic trays (35 cm×25 cm×15 cm) were filled with upland field soil, and the seeds of tall morningglory, velvetleaf, jimsonweed, sicklepod, hemp sesbania, prickly side, Johnsongrass, green foxtail and large crabgrass and the seeds of soybean were sown therein. A designed amount of the test compound formulated into a wettable powder according to Preparation Example 1 and dispersed in water was sprayed over the top by means of a small hand sprayer at a spray volume of 5 liters per are. After the spraying, the test plants were grown in greenhouse for 20 days, and phytotoxicity and herbicidal activity were examined.

[4] = system: large crabgrass; assay: as above; type: in vivo, Digitaria sanguinalis; conditions: sprayed over the top, 20 days; note: ranges in brackets are in %
Experimental: as §2, §4

[5] = system: corn; assay: Test Example 1, foliar treatment, phytotoxicity to corn; type: in vivo; conditions: 3 weeks; note: ranges in brackets are in %
Method in brief: (§5)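 Crops and weeds sown in upland soil, greenhouse-grown 2 weeks, then sprayed on foliage with compound as emulsifiable concentrate in water plus spreading agent at 5 liters per are. Scored 3 weeks later from aerial fresh weight as percent of untreated plants, converted to a rating scale.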

[6] = system: green foxtail; assay: Test Example 5, spraying over the top, herbicidal activity; type: in vivo, Setaria viridis; conditions: sprayed over the top, 20 days; note: ranges in brackets are in %
Experimental: as §2, §4

[7] = system: broad-leaved weed; assay: Test Example 6, paddy pot perfusion, herbicidal activity; type: in vivo, monochoria, false pimpernel, toothcup; conditions: 3 weeks, dry weight; note: ranges in brackets are in %
Experimental: as §2, §3

[8] = system: tall morningglory; assay: Test Example 3, soil surface spraying, herbicidal activity; type: in vivo, Ipomoea purpurea; conditions: 20 days; note: ranges in brackets are in %
Experimental: as §2
(§6) Plastic trays (35 cm×25 cm×15 cm) were filled with upland field soil, and the seeds of tall morningglory, velvetleaf and sicklepod and the seeds of corn were sown therein. A designed amount of the test compounds formulated into a wettable powder according to Preparation Example 1 was dispersed in water and applied by spraying at a spray volume of 5 liters per are to the whole surface of the soil. After the spraying, the test plants were placed in a greenhouse and grown for 20 days, and herbicidal activity and phytotoxicity were examined.

[9] = system: Johnsongrass; assay: Test Example 4, pre-emergence treatment, herbicidal activity; type: in vivo, Sorghum halepense; conditions: 20 days; note: ranges in brackets are in %
Method in brief: as §1

[10] = system: rice plant; assay: Test Example 7, flooded paddy pot dripping, phytotoxicity to rice plant; type: in vivo; conditions: 3 weeks; note: ranges in brackets are in %
Experimental: as §2
Wagner's pots (1/5000 are) were filled with paddy field soil and water was poured therein to make a flooded condition. Rice seedlings of the 3-leaf stage were transplanted and tubers of slender spikerush and arrowhead and the seeds of barnyardgrass, monochoria and broad-leaved weed were sowed therein and grown for 5 days. When germination occurs, a designed amount of the test compound formulated into an emulsifiable concentrate according to Preparation Example 2 was applied to the pots by dripping. The test plants were grown for a further 3 weeks, and herbicidal activity and phytotoxicity were examined. The herbicidal activity was evaluated in figures ranging from 0 to 5. The phytotoxicity to the crop plants was also indicated on the same standard as that of the herbicidal activity.

[11] = system: wild mustard; assay: Test Example 1, foliar treatment, herbicidal activity; type: in vivo, Brassica kaber; conditions: 3 weeks
Method in brief: as §5

[12] = system: green foxtail; assay: Test Example 4, pre-emergence treatment, herbicidal activity; type: in vivo, Setaria viridis; conditions: 20 days; note: ranges in brackets are in %
Method in brief: as §1

[13] = system: corn; assay: Test Example 2, field foliar treatment, phytotoxicity to corn; type: in vivo; conditions: 3 weeks; note: ranges in brackets are in %
Experimental: as §2
Seeds of corn and broad-leaved weeds such as cocklebur, common purslane and tall morningglory were sown in the field as previously laid up in ridges, each ridge having an upper width of 1 m. At the time when the corn grew up to the 6-leaf stage and the broad-leaved weeds up to 2 to 5-leaf stages, a designed amount of the test compound formulated into an emulsifiable concentrate according to Preparation Example 2 and dispersed in water was sprayed to the foliage of the test plants with three replications over the top by means of a small hand sprayer at a spray volume of 5 liters per are. After cultivation for 3 weeks, herbicidal activity and phytotoxicity were examined.

[14] = system: corn; assay: Test Example 3, soil surface spraying, phytotoxicity to corn; type: in vivo; conditions: 20 days; note: ranges in brackets are in %
Experimental: as §2, §6

[15] = system: arrowhead; assay: Test Example 6, paddy pot perfusion, herbicidal activity; type: in vivo, Sagittaria pygmaea; conditions: 3 weeks, dry weight; note: ranges in brackets are in %
Experimental: as §2, §3

Structure (SMILES)	Herbicidal activity, Hardstem bulrush ([2]; 1.25 g/are)	Herbicidal activity, Hardstem bulrush ([2]; 2.5 g/are)	Herbicidal activity, Tall morningglory ([3]; 10 g/are)	Herbicidal activity, Tall morningglory ([3]; 20 g/are)	Herbicidal activity, Large crabgrass ([4]; 10 g/are)	Herbicidal activity, Large crabgrass ([4]; 20 g/are)	Phytotoxicity, Corn ([5]; 1.25 g/are)	Phytotoxicity, Corn ([5]; 5 g/are)	Herbicidal activity, Green foxtail ([6]; 10 g/are)	Herbicidal activity, Green foxtail ([6]; 20 g/are)	Herbicidal activity, Broad-leaved weed ([7]; 1.25 g/are)	Herbicidal activity, Broad-leaved weed ([7]; 2.5 g/are)	Herbicidal activity, Tall morningglory ([8]; 5 g/are)	Herbicidal activity, Tall morningglory ([8]; 10 g/are)	Herbicidal activity, Wild mustard ([11]; 1.25 g/are)	Herbicidal activity, Wild mustard ([11]; 5 g/are)	Phytotoxicity, Corn ([13]; 0.63 g/are)	Phytotoxicity, Corn ([13]; 1.25 g/are)	Phytotoxicity, Corn ([14]; 5 g/are)	Phytotoxicity, Corn ([14]; 10 g/are)	other results
O=C1C2=C(CCCC2)C(=O)N1c1ccc(Cl)cc1F [A, 2-fluoro-4-chlorophenyltetrahydrophthalimide, reference compound]	2 (21-40)	3 (11-20)	0 (61-100)	1 (41-60)	5 (0)	5 (0)	1 (90-99)	2 (80-89)	5 (0)	5 (0)	5 (0)	5 (0)	0 (61-100)	0 (61-100)	3 (11-20)	5 (0)	0 (100)	1 (90-99)	2 (80-89)	3 (60-79)	Herbicidal activity, Velvetleaf ([1]; 2.5 g/are): 4 (1-10); Herbicidal activity, Velvetleaf ([1]; 10 g/are): 5 (0); Herbicidal activity, Johnsongrass ([9]; 2.5 g/are): 1 (41-60); Herbicidal activity, Johnsongrass ([9]; 10 g/are): 3 (11-20); Phytotoxicity, Rice plant ([10]; 2.5 g/are): 1 (10-29); Phytotoxicity, Rice plant ([10]; 5 g/are): 1 (10-29); Phytotoxicity, Rice plant ([10]; 10 g/are): 2 (30-49); Herbicidal activity, Green foxtail ([12]; 2.5 g/are): 1 (41-60); Herbicidal activity, Green foxtail ([12]; 10 g/are): 4 (1-10); Herbicidal activity, Arrowhead ([15]; 1.25 g/are): 0 (61-100); Herbicidal activity, Arrowhead ([15]; 2.5 g/are): 0 (61-100)
CC(C)Oc1cc(N2C(=O)C3=C(CCCC3)C2=O)c(Cl)cc1Cl [B, 2,4-dichloro-5-isopropoxyphenyltetrahydrophthalimide, reference compound]	1 (41-60)	2 (21-40)	0 (61-100)	0 (61-100)	3 (11-20)	4 (1-10)	0 (100)	1 (90-99)	3 (11-20)	4 (1-10)	5 (0)	5 (0)	0 (61-100)	0 (61-100)	2 (21-40)	3 (11-20)	1 (90-99)	1 (90-99)	0 (100)	0 (100)	Herbicidal activity, Velvetleaf ([1]; 5 g/are): 1 (41-60); Herbicidal activity, Velvetleaf ([1]; 20 g/are): 3 (11-20); Herbicidal activity, Johnsongrass ([9]; 5 g/are): 1 (41-60); Herbicidal activity, Johnsongrass ([9]; 20 g/are): 2 (21-40); Herbicidal activity, Green foxtail ([12]; 5 g/are): 0 (61-100); Herbicidal activity, Green foxtail ([12]; 20 g/are): 0 (61-100); Herbicidal activity, Arrowhead ([15]; 1.25 g/are): 0 (61-100); Herbicidal activity, Arrowhead ([15]; 2.5 g/are): 0 (61-100)
